Laboratory results: patent US9352013B2, “Uses of bremelanotide in therapy for female sexual dysfunction” (Palatin Technologies, Inc., priority 2012, dated 2016)
Like-named read-outs stand apart in the source and are kept apart here. Marks after values point to notes of the source that are not given here.

Assays:
[1] = Example 1: ambulatory blood pressure monitoring; assay type: in vivo, human; conditions: 1.75 mg SC; for SBP: treatment group difference (from placebo) in mean change from single-blind placebo / DBP: treatment group difference (from placebo) in mean change from single-blind placebo: in mmHg (unit assumed); for HR-BP Product: treatment group difference (from placebo) in mean change from single-blind placebo: in mmHg·bpm (unit assumed); for Pulse: treatment group difference (from placebo) in mean change from single-blind placebo: in bpm (unit assumed)
Experimental: (§1) Ambulatory blood pressure monitoring was conducted following both placebo and randomized treatment group in-clinic administrations. Three periods of ambulatory blood pressure monitoring were included, the first period was from before to 24 hours after a single, in-clinic dose of placebo (to establish a baseline); the second and third periods occurred from before to 24 hours after each of 2 single, in-clinic doses of double-blind treatment, administered within 14 days of each other. Blood samples for pharmacokinetic analysis were collected before and at 0.5, 1.0, and 2.0 hours after each in-clinic bremelanotide single-dose treatment (double-blind only), to permit analysis of concentration-response relationships.
Mean changes in blood pressure were characterized in all subjects based on sequential supervised dosing of single-blind subcutaneous placebo and two doses of randomized study drug. The primary analysis for mean changes was the difference between treatment groups in the change from single-blind placebo to randomized drug (Visit 2 vs. Visits 5/7). There were between 86 to 100 subjects in each dose group.
Although there were an increased number of outliers for maximal changes from baseline in systolic blood pressure in drug-treated patients, the duration of these events was quite limited. The interrogation interval during ambulatory blood pressure monitoring assessments of 15 minutes allowed definition of the maximal duration of such excursions. […] The clinical significance of such changes, if any, is small.

[2] = Example 1: pharmacokinetics after in-clinic subcutaneous dose; assay type: in vivo, human; conditions: for AUC(0-t) / Cmax: human, sc
Experimental: as §1
Mean pharmacokinetic parameters were determined by bremelanotide dose and visit, including Cmax determinations (the highest ng/mL concentration at either 0.5 or 1 hour post administration) and AUC determinations at two hours and, for a subset of subjects in each group, at four hours.
The Cmax for the mean curve was calculated by averaging the concentrations at each time point (0.5, 1, 2 and 4 hours), and this is shown in FIG. 3.

SMILES: CCCC[C@H](NC(C)=O)C(=O)N[C@H]1CC(=O)NCCCC[C@@H](C(=O)O)NC(=O)[C@H](Cc2c[nH]c3ccccc23)NC(=O)[C@H](CCCNC(=N)N)NC(=O)[C@@H](Cc2ccccc2)NC(=O)[C@H](Cc2c[nH]cn2)NC1=O [bremelanotide, Ac-Nle-cyclo(-Asp-His-D-Phe-Arg-Trp-Lys)-OH]
- SBP: treatment group difference (from placebo) in mean change from single-blind placebo ([1]; interval 0-4 h, V5): 3.1*
- HR-BP Product: treatment group difference (from placebo) in mean change from single-blind placebo ([1]; interval 0-4 h, V5): −305.9
- Pulse: treatment group difference (from placebo) in mean change from single-blind placebo ([1]; interval 0-4 h, V7): −4.7*
- DBP: treatment group difference (from placebo) in mean change from single-blind placebo ([1]; interval 0-4 h, V7): 2.6*
- SBP: treatment group difference (from placebo) in mean change from single-blind placebo ([1]; interval 0-4 h, V7): 2.5*
- HR-BP Product: treatment group difference (from placebo) in mean change from single-blind placebo ([1]; interval 0-4 h, V7): −375.4*
- Pulse: treatment group difference (from placebo) in mean change from single-blind placebo ([1]; interval 0-24 h, V5): −2.2*
- DBP: treatment group difference (from placebo) in mean change from single-blind placebo ([1]; interval 0-24 h, V5): 1.9*
- SBP: treatment group difference (from placebo) in mean change from single-blind placebo ([1]; interval 0-24 h, V5): 1.6
- HR-BP Product: treatment group difference (from placebo) in mean change from single-blind placebo ([1]; interval 0-24 h, V5): −139.1
- Pulse: treatment group difference (from placebo) in mean change from single-blind placebo ([1]; interval 0-24 h, V7): −2.2*
- DBP: treatment group difference (from placebo) in mean change from single-blind placebo ([1]; interval 0-24 h, V7): 1.8*
- SBP: treatment group difference (from placebo) in mean change from single-blind placebo ([1]; interval 0-24 h, V7): 1.3
- HR-BP Product: treatment group difference (from placebo) in mean change from single-blind placebo ([1]; interval 0-24 h, V7): −184.1
- Pulse: treatment group difference (from placebo) in mean change from single-blind placebo ([1]; interval 4-8 h, V5): −6.6*
- DBP: treatment group difference (from placebo) in mean change from single-blind placebo ([1]; interval 4-8 h, V5): 2.3*
- SBP: treatment group difference (from placebo) in mean change from single-blind placebo ([1]; interval 4-8 h, V5): 2.1
- HR-BP Product: treatment group difference (from placebo) in mean change from single-blind placebo ([1]; interval 4-8 h, V5): −608.1*
- Pulse: treatment group difference (from placebo) in mean change from single-blind placebo ([1]; interval 4-8 h, V7): −6.6*
- DBP: treatment group difference (from placebo) in mean change from single-blind placebo ([1]; interval 4-8 h, V7): 2.2*
- SBP: treatment group difference (from placebo) in mean change from single-blind placebo ([1]; interval 4-8 h, V7): 2.2
- HR-BP Product: treatment group difference (from placebo) in mean change from single-blind placebo ([1]; interval 4-8 h, V7): −624.5*
- Pulse: treatment group difference (from placebo) in mean change from single-blind placebo ([1]; interval 8-24 h, V5): −0.8
- DBP: treatment group difference (from placebo) in mean change from single-blind placebo ([1]; interval 8-24 h, V5): 1.4*
- SBP: treatment group difference (from placebo) in mean change from single-blind placebo ([1]; interval 8-24 h, V5): 0.9
- HR-BP Product: treatment group difference (from placebo) in mean change from single-blind placebo ([1]; interval 8-24 h, V5): −23.7
- Pulse: treatment group difference (from placebo) in mean change from single-blind placebo ([1]; interval 8-24 h, V7): −0.5
- DBP: treatment group difference (from placebo) in mean change from single-blind placebo ([1]; interval 8-24 h, V7): 1.4
- SBP: treatment group difference (from placebo) in mean change from single-blind placebo ([1]; interval 8-24 h, V7): 0.6
- HR-BP Product: treatment group difference (from placebo) in mean change from single-blind placebo ([1]; interval 8-24 h, V7): −31.3
- Cmax, Max ([2]; 1.75 mg SC, Visit 5): 115 ng/mL
- Cmax, Min ([2]; 1.75 mg SC, Visit 5): 15 ng/mL
- AUC(0-t) ([2]; blood, 0.75 mg, 0.75 mg SC, Visit 5, read-out: AUC(0-2h), Median): 52 ng·h/mL
- AUC(0-t) ([2]; blood, 0.75 mg, 0.75 mg SC, Visit 5, read-out: AUC(0-4h), Median): 80 ng·h/mL
- Cmax ([2]; blood, 0.75 mg, 0.75 mg SC, Visit 5, read-out: Cmax, Median): 36 ng/mL
- AUC(0-t) ([2]; blood, 0.75 mg, 0.75 mg SC, Visit 7, read-out: AUC(0-2h), Mean): 53 ng·h/mL
- AUC(0-t) ([2]; blood, 0.75 mg, 0.75 mg SC, Visit 7, read-out: AUC(0-2h), Median): 52 ng·h/mL
- AUC(0-t) ([2]; blood, 0.75 mg, 0.75 mg SC, Visit 7, read-out: AUC(0-4h), Mean): 80 ng·h/mL
- AUC(0-t) ([2]; blood, 0.75 mg, 0.75 mg SC, Visit 7, read-out: AUC(0-4h), Median): 79 ng·h/mL
- Cmax ([2]; blood, 0.75 mg, 0.75 mg SC, Visit 7, read-out: Cmax, Median): 37 ng/mL
- AUC(0-t) ([2]; blood, 1.25 mg, 1.25 mg SC, Visit 5, read-out: AUC(0-2h), Mean): 86 ng·h/mL
- AUC(0-t) ([2]; blood, 1.25 mg, 1.25 mg SC, Visit 5, read-out: AUC(0-2h), Median): 81 ng·h/mL
- AUC(0-t) ([2]; blood, 1.25 mg, 1.25 mg SC, Visit 5, read-out: AUC(0-4h), Mean): 138 ng·h/mL
- AUC(0-t) ([2]; blood, 1.25 mg, 1.25 mg SC, Visit 5, read-out: AUC(0-4h), Median): 136 ng·h/mL
- Cmax ([2]; blood, 1.25 mg, 1.25 mg SC, Visit 5, read-out: Cmax, Mean): 60 ng/mL
- Cmax ([2]; blood, 1.25 mg, 1.25 mg SC, Visit 5, read-out: Cmax, Median): 56 ng/mL
- AUC(0-t) ([2]; blood, 1.25 mg, 1.25 mg SC, Visit 7, read-out: AUC(0-2h), Mean): 84 ng·h/mL
- AUC(0-t) ([2]; blood, 1.25 mg, 1.25 mg SC, Visit 7, read-out: AUC(0-2h), Median): 84 ng·h/mL
- AUC(0-t) ([2]; blood, 1.25 mg, 1.25 mg SC, Visit 7, read-out: AUC(0-4h), Mean): 142 ng·h/mL
- AUC(0-t) ([2]; blood, 1.25 mg, 1.25 mg SC, Visit 7, read-out: AUC(0-4h), Median): 144 ng·h/mL
- Cmax ([2]; blood, 1.25 mg, 1.25 mg SC, Visit 7, read-out: Cmax, Mean): 60 ng/mL
- Cmax ([2]; blood, 1.25 mg, 1.25 mg SC, Visit 7, read-out: Cmax, Median): 60 ng/mL
- AUC(0-t) ([2]; in vivo, 0.75 mg, 0.75 mg SC, Visit 5, read-out: AUC(0-2h), Mean): 53 ng·h/mL
- AUC(0-t) ([2]; in vivo, 0.75 mg, 0.75 mg SC, Visit 5, read-out: AUC(0-4h), Mean): 84 ng·h/mL
- Cmax ([2]; in vivo, 0.75 mg, 0.75 mg SC, Visit 5, read-out: Cmax, Mean): 37 ng/mL
- Cmax ([2]; in vivo, 0.75 mg, 0.75 mg SC, Visit 7, read-out: Cmax, Mean): 38 ng/mL
- AUC(0-t) ([2]; in vivo, 1.75 mg, 1.75 mg SC, Visit 5, read-out: AUC(0-2h), Mean): 112 ng·h/mL
- AUC(0-t) ([2]; in vivo, 1.75 mg, 1.75 mg SC, Visit 5, read-out: AUC(0-2h), Median): 112 ng·h/mL
- AUC(0-t) ([2]; in vivo, 1.75 mg, 1.75 mg SC, Visit 5, read-out: AUC(0-4h), Mean): 178 ng·h/mL
- AUC(0-t) ([2]; in vivo, 1.75 mg, 1.75 mg SC, Visit 5, read-out: AUC(0-4h), Median): 179 ng·h/mL
- Cmax ([2]; in vivo, 1.75 mg, 1.75 mg SC, Visit 5, read-out: Cmax, Mean): 77 ng/mL
- Cmax ([2]; in vivo, 1.75 mg, 1.75 mg SC, Visit 5, read-out: Cmax, Median): 78 ng/mL
- AUC(0-t) ([2]; in vivo, 1.75 mg, 1.75 mg SC, Visit 7, read-out: AUC(0-2h), Mean): 112 ng·h/mL
- AUC(0-t) ([2]; in vivo, 1.75 mg, 1.75 mg SC, Visit 7, read-out: AUC(0-2h), Median): 111 ng·h/mL
- AUC(0-t) ([2]; in vivo, 1.75 mg, 1.75 mg SC, Visit 7, read-out: AUC(0-4h), Mean): 184 ng·h/mL
- AUC(0-t) ([2]; in vivo, 1.75 mg, 1.75 mg SC, Visit 7, read-out: AUC(0-4h), Median): 180 ng·h/mL
- Cmax ([2]; in vivo, 1.75 mg, 1.75 mg SC, Visit 7, read-out: Cmax, Mean): 78 ng/mL
- Cmax ([2]; in vivo, 1.75 mg, 1.75 mg SC, Visit 7, read-out: Cmax, Median): 77 ng/mL
- Cmax ([2]; in vivo, 1.75 mg, 1.75 mg subcutaneous dose, Example 1, read-out: Cmax, maximum): 115 ng/mL
- Cmax ([2]; in vivo, 1.75 mg, 1.75 mg subcutaneous dose, Example 1, read-out: Cmax, mean): 77.2 ± 19.5 ng/mL
- Cmax ([2]; in vivo, 1.75 mg, 1.75 mg subcutaneous dose, Example 1, read-out: Cmax, median): 78 ng/mL
- Cmax ([2]; in vivo, 1.75 mg, 1.75 mg subcutaneous dose, Example 1, read-out: Cmax, minimum): 15 ng/mL
